Results: PubChem BioAssay (NCI)
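1) Cells in 96-well plates. 2) Compound, 48 h, 5 concentrations. 3) Linear interpolation between surrounding doses. 4) Unreached endpoint = highest concentration. Here, GI50 denotes the concentration required for 50% inhibition of growth. TGI: total growth inhibition.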

Experiments:
Assay in all cases: NCI tumour cell line growth inhibition, 48 h
SF-295 CNS = system: SF-295 CNS
HOP-62 NSCLC = system: HOP-62 NSCLC
HCT-15 colon = system: HCT-15 colon
OVCAR-8 ovarian = system: OVCAR-8 ovarian
COLO 205 colon = system: COLO 205 colon
HCT-116 colon = system: HCT-116 colon
MDA-MB-435 = system: MDA-MB-435
SK-MEL-28 melanoma = system: SK-MEL-28 melanoma
SK-OV-3 ovarian = system: SK-OV-3 ovarian
SNB-19 CNS = system: SNB-19 CNS
RXF 393 renal = system: RXF 393 renal
K-562 leukemia = system: K-562 leukemia
786-0 renal = system: 786-0 renal
HCC-2998 colon = system: HCC-2998 colon
U251 CNS = system: U251 CNS
UACC-62 melanoma = system: UACC-62 melanoma
NCI-H522 lung = system: NCI-H522 lung
OVCAR-5 ovarian = system: OVCAR-5 ovarian
EKVX NSCLC = system: EKVX NSCLC
SR leukemia = system: SR leukemia
NCI/ADR-RES ovarian = system: NCI/ADR-RES ovarian
SK-MEL-5 melanoma = system: SK-MEL-5 melanoma
NCI-H460 lung = system: NCI-H460 lung
UO-31 renal = system: UO-31 renal
CAKI-1 renal = system: CAKI-1 renal
MOLT-4 leukemia = system: MOLT-4 leukemia
SK-MEL-2 melanoma = system: SK-MEL-2 melanoma
HT29 colon = system: HT29 colon
PC-3 prostate = system: PC-3 prostate
NCI-H23 lung = system: NCI-H23 lung
UACC-257 melanoma = system: UACC-257 melanoma
IGROV1 ovarian = system: IGROV1 ovarian
T-47D breast = system: T-47D breast
A549 NSCLC = system: A549 NSCLC
SF-539 CNS = system: SF-539 CNS
RPMI-8226 leukemia = system: RPMI-8226 leukemia
MDA-MB-231 breast = system: MDA-MB-231 breast
MCF7 breast = system: MCF7 breast
HS 578T breast = system: HS 578T breast
A498 renal = system: A498 renal
HL-60(TB) leukemia = system: HL-60(TB) leukemia
CCRF-CEM leukemia = system: CCRF-CEM leukemia
ACHN renal = system: ACHN renal
SN12C renal = system: SN12C renal
KM12 colon = system: KM12 colon
DU-145 prostate = system: DU-145 prostate
SW-620 colon = system: SW-620 colon
LOX IMVI melanoma = system: LOX IMVI melanoma
TK-10 renal = system: TK-10 renal
SF-268 CNS = system: SF-268 CNS
BT-549 breast = system: BT-549 breast
M14 melanoma = system: M14 melanoma
NCI-H226 lung = system: NCI-H226 lung
HOP-92 NSCLC = system: HOP-92 NSCLC

## CCCCCCCOc1c(OC)cc(C2CC(=O)Nc3c2c(C)nn3-c2nc3ccccc3[nH]2)cc1OC (stereo not drawn)
SF-295 CNS
  GI50: 2330 nM
  TGI: 7.74 µM
HOP-62 NSCLC
  GI50: 3.09 µM
  TGI: 14.2 µM
HCT-15 colon
  GI50: 3.12 µM
  TGI: > 100 µM
OVCAR-8 ovarian
  GI50: 4.28 µM
  TGI: > 100 µM
COLO 205 colon
  GI50: 4.34 µM
  TGI: > 100 µM
HCT-116 colon
  GI50: 3.49 µM
  TGI: > 100 µM
MDA-MB-435
  GI50: 2420 nM
  TGI: 6.08 µM
SK-MEL-28 melanoma
  GI50: 2770 nM
  TGI: 8.61 µM
SK-OV-3 ovarian
  GI50: 2770 nM
  TGI: 7.55 µM
SNB-19 CNS
  GI50: 3.93 µM
  TGI: > 100 µM
RXF 393 renal
  GI50: 1960 nM
  TGI: 5.02 µM
K-562 leukemia
  GI50: 4.23 µM
  TGI: > 100 µM
786-0 renal
  GI50: 3.61 µM
  TGI: 21.8 µM
HCC-2998 colon
  GI50: 74.1 µM
  TGI: > 100 µM
U251 CNS
  GI50: 3.72 µM
  TGI: > 100 µM
UACC-62 melanoma
  GI50: 2540 nM
  TGI: 7.3 µM
NCI-H522 lung
  GI50: 2790 nM
  TGI: 10.3 µM
OVCAR-5 ovarian
  GI50: 4.39 µM
  TGI: > 100 µM
EKVX NSCLC
  GI50: 2540 nM
  TGI: 8.15 µM
SR leukemia
  GI50: 3.08 µM
  TGI: > 100 µM
NCI/ADR-RES ovarian
  GI50: 3.83 µM
  TGI: > 100 µM
SK-MEL-5 melanoma
  GI50: 1930 nM
  TGI: 3.78 µM
NCI-H460 lung
  GI50: 1870 nM
  TGI: 3.82 µM
UO-31 renal
  GI50: 1630 nM
  TGI: 4.82 µM
CAKI-1 renal
  GI50: 1920 nM
  TGI: 4.25 µM
MOLT-4 leukemia
  GI50: 2800 nM
  TGI: 7.72 µM
SK-MEL-2 melanoma
  GI50: 3.28 µM
  TGI: 12.6 µM
HT29 colon
  GI50: 4.06 µM
  TGI: > 100 µM
PC-3 prostate
  GI50: 3.67 µM
  TGI: > 100 µM
NCI-H23 lung
  GI50: 2950 nM
  TGI: 9.96 µM
UACC-257 melanoma
  GI50: 4.03 µM
  TGI: > 100 µM
IGROV1 ovarian
  GI50: 2740 nM
  TGI: 10.1 µM
T-47D breast
  GI50: 3.95 µM
  TGI: > 100 µM
A549 NSCLC
  GI50: 4.18 µM
  TGI: > 100 µM
SF-539 CNS
  GI50: 1660 nM
  TGI: 3.11 µM
RPMI-8226 leukemia
  GI50: 3.71 µM
  TGI: > 100 µM
MDA-MB-231 breast
  GI50: 1980 nM
  TGI: 4.12 µM
MCF7 breast
  GI50: 2910 nM
  TGI: > 100 µM
HS 578T breast
  GI50: 1350 nM
  TGI: 4.43 µM
A498 renal
  GI50: 881 nM
  TGI: 3.9 µM
HL-60(TB) leukemia
  GI50: 2880 nM
  TGI: 9.03 µM
CCRF-CEM leukemia
  GI50: 4.15 µM
  TGI: > 100 µM
ACHN renal
  GI50: 3.21 µM
  TGI: > 100 µM
SN12C renal
  GI50: 3.48 µM
  TGI: > 100 µM
KM12 colon
  GI50: 2810 nM
  TGI: 9.81 µM
DU-145 prostate
  GI50: 4.66 µM
  TGI: > 100 µM
SW-620 colon
  GI50: 2110 nM
  TGI: 5.18 µM
LOX IMVI melanoma
  GI50: 2120 nM
  TGI: 4.51 µM
TK-10 renal
  GI50: 3.12 µM
  TGI: > 100 µM
SF-268 CNS
  GI50: 2120 nM
  TGI: 6.68 µM
BT-549 breast
  GI50: 3.4 µM
  TGI: 47.5 µM
M14 melanoma
  GI50: 4.01 µM
  TGI: > 100 µM
NCI-H226 lung
  GI50: 2100 nM
  TGI: 4.56 µM
HOP-92 NSCLC
  GI50: 2340 nM
  TGI: 7.68 µM
